Results as given in patent US5798375A, “Treatment of arteriosclerosis and xanthoma” (Sankyo Company, Limited, priority 1995, dated 1998).

Key:
[1] = Example 2: serum cholesterol in WHHL rabbits; type: in vivo, Male WHHL rabbits; settings: Groups C and D (pioglitazone 20 mg/kg; Compound A 10 mg/kg)
Experimental: (§1) Each test compound was administered for eight months to the rabbits in the form of an aqueous suspension (0.5% carboxymethylcellulose added). In the control group, a 0.5% carboxymethylcellulose solution only was administered.

[2] = test system: WHHL rabbits; test: Example 2: percentage area covered by lesions, aortic arch and whole aorta; type: in vivo, Male WHHL rabbits; set-up: Lesion Area, Aortic Arch, percentage against the control group / Lesion Area, Total Aorta, percentage against the control group: concentration or dose not given beside the values; settings: oral, eight months
Experimental: as §1
The values actually measured are represented by the mean value plus or minus standard error. The numbers in parentheses represent the percentage lesion area against the control group.
*p<0.05, **p<0.01; significant difference against the control group under the [Mann-Whitney's U-Test A significant difference (p<0.05) was observed between Groups B and F, between Groups C and E and between Groups D and F at the aortic arch, and between Groups C and E over the total aorta.

[3] = test system: WHHL rabbits; test: Example 2: average thickening of intima in aorta; type: in vivo, Male WHHL rabbits; set-up: Average thickening of intima, Aortic Arch, percentage against the control group / Average thickening of intima, Total Aorta, percentage against the control group: concentration or dose not given beside the values
Experimental: as §1
The values actually measured are represented as the mean value plus or minus a standard error (μm). The numbers in parentheses represent the percentage intimal thickening against the control group. A significant difference was observed between Groups D and F at the aortic arch, and between Groups C and E and between Groups D and F over the total aorta (p<0.05) under the Mann-Whitney's U-Test.
The average thickening of the intima is calculated by the cross-sectional area of the aortic tunica intima one section from the arch and two sections from the thoracic and abdominal portions, divided by the length of the tunica media.

[4] = test system: WHHL rabbits; test: Example 2: aortic cholesterol content; type: in vivo, Male WHHL rabbits
Experimental: as §1
The aortic cholesterol content was measured The tunica media and tunica intima at the aortic arch and at the thoracic and abdominal aorta were peeled away with tweezers and cut into pieces. The pieces were extracted with a 2:1 by volume mixture of chloroform and methanol.
The chloroform phase was separated and evaporated to dryness and the residue was dissolved in isopropanol. The total cholesterol and the free cholesterol were measured by a conventional enzymatic method.
Data are expressed by the mean plus or minus standard error (mg/g tissue). The values in parentheses indicate the percentage against the control. A significant difference against the control group was observed by the unpaired student t-test: […]

[5] = test system: WHHL rabbits; test: Example 2: incidence and degree of xanthoma of the four legs; type: in vivo, Male WHHL rabbits; set-up: Frequency of massive xanthoma: unit not given here
Experimental: as §1
The incidence and the degree of xanthoma of the four legs were measured.

[6] = Example 1: plasma total cholesterol in WHHL rabbits; type: in vivo; settings: pravastatin 50 mg/kg/day oral gavage, troglitazone in diet containing 100 mg/kg
Experimental: (§2) WHHL rabbits [2-3 months of age, the Watanabe heritable hyperlipidemic rabbit described in Biochimica et Biophysica Acta, 960, 294-302 (1988)] were randomly assigned to a control group (7 animals, group A), a group receiving pravastatin alone (5 animals, Group B), a group receiving troglitazone alone (7 animals, Group C), and a group receiving a combination of both active substances (6 animals, Group D). Pravastatin was administered orally by gavage at a dose of 50 mg/kg/day once-daily and troglitazone was given in the diet, containing 100 mg/kg of the substance for 32 weeks. The ingested amount was limited to a daily 120 g per rabbit. Blood was withdrawn from the animal immediately before starting the study and 4, 8, 12, 16, 20, 24, 28 and 32 weeks after starting the study and the total cholesterol levels (mg/dl) were determined for each blood sample. The levels are reported as a percentage (%) of the levels measured immediately before starting the study. The animals were sacrificed and necropsied at week 32 to examine (a) the percent lesion area (%) in the total, thoracic or abdominal portion of the aorta; (b) the stenosis (%) of the coronary arteries and (c) the incidence (%) of xanthoma in the digital joints.

[7] = test system: WHHL rabbits; test: Example 1: percent lesion area of the aorta in WHHL rabbits; type: in vivo; settings: week 32, mean ± standard error, pravastatin 50 mg/kg/day, troglitazone in diet containing 100 mg/kg, * p < 0.05 vs control
Experimental: as §2
(§3) The values actually measured are represented as an average value±standard error in those Tables.

[8] = test system: WHHL rabbits; test: Example 1: stenosis of the coronary arteries in WHHL rabbits; type: in vivo; settings: week 32
Experimental: as §2, §3

[9] = test system: WHHL rabbits; test: Example 1: incidence of xanthoma in the digital joints of WHHL rabbits; type: in vivo
Experimental: as §2, §3

[10] = test system: Male New Zealand white rabbits; test: Example 3: regression of established atherosclerotic lesions in the cholesterol-fed rabbit model; type: in vivo
Experimental: The rabbits were grouped randomly (3-9 animals per group) and the test samples were administered orally for two months, while they were fed with a normolipidaemic diet. […] The results are shown in terms of the percentage of lesion area in the thoracic aorta.

[11] = test system: Male Fl b hamsters; test: Example 4: regression of preformed atherosclerosis in hamsters (Oil Red O stained area); type: in vivo; settings: for Stained Area ORO: aortic arch, 4 weeks, control 1.82 ± 0.44
Experimental: Synergism of HMG CoA reductase inhibitors and thiazolidinedione insulin sensitizers was examined by another regression model, i.e. the regression of preformed atherosclerosis in hamsters. Male Fl b hamsters (weight about 130 g,) were given a diet containing 0.05% cholesterol for 13 weeks. They were grouped randomly (2-7 animals per group), and then the test samples were administered for 4 weeks while the hamsters were given a normolipidaemic diet. Pravastatin and fluvastatin were mixed with drinking water at the dose of 3 mg/kg and 1.5 mg/kg, respectively, while troglitazone was mixed with the diet at the dose of 30 mg/kg or 100 mg/kg.
In the case of the combination groups, the dosage was 3 mg/kg+30 mg/kg or 3 mg/kg+100 mg/kg for the pravastatin+troglitazone group, and 1.5 mg/kg+30 mg/kg for the fluvastatin+troglitazone group.
Namely, the aortic arch was stained with ORO to prepare en face specimens. The percentage area which was positive to the ORO stain over the whole area was measured to represent the degree of aortic lesion.

[12] = oral, eight months, control 100 (14/14), *p < 0.05, **p < 0.01 vs control

## CCc1ccc(CCOc2ccc(CC3SC(=O)NC3=O)cc2)nc1 (stereo not shown) [Pioglitazone, 5-{4-[2-(5-ethylpyridin-2-yl)ethoxy]benzyl}-2,4-thiazolidinedione]
[1]
  reduction of the serum cholesterol levels: no reduction
[2]; number in parentheses
  Lesion Area, Aortic Arch, percentage against the control group: 88%
  Lesion Area, Total Aorta, percentage against the control group: 108%
[2]; pravastatin 50, pioglitazone 20, Compound A 10 mg/kg, mean ± standard error, *p<0.05, **p<0.01 vs control
  Lesion Area, Total Aorta: 54 ± 8%
[2]; pravastatin 50, pioglitazone 20, Compound A 10 mg/kg, mean ± standard error, control 82 ± 5, *p<0.05, **p<0.01 vs control
  Lesion Area, Aortic Arch: 72 ± 10%
[3]; combinations compared with Groups C and D
  suppression of intimal thickening: no suppression of hypertrophy
[3]; number in parentheses
  Average thickening of intima, Aortic Arch, percentage against the control group: 103%
  Average thickening of intima, Total Aorta, percentage against the control group: 115%
[3]; oral, eight months, pravastatin 50, pioglitazone 20, Compound A 10 mg/kg, mean ± standard error, control 154 ± 33
  Average thickening of intima in aorta, Total Aorta: 177 ± 26 μm
[3]; oral, eight months, pravastatin 50, pioglitazone 20, Compound A 10 mg/kg, mean ± standard error, control 237 ± 63
  Average thickening of intima in aorta, Aortic Arch: 245 ± 37 μm
[4]; mean ± standard error, control 5.3 ± 1.7
  Cholesterol level of Thoracic and Abdominal Aorta, Esterified: 10.5 ± 3.8 mg/g tissue
[4]; mean ± standard error, control 6.5 ± 1.4, *p < 0.05
  Cholesterol Content of Aortic Arch, Esterified: 6.6 ± 2.7 mg/g tissue
[4]; mean ± standard error, control 14.8 ± 2.3, *p < 0.05 vs control
  Cholesterol level of Thoracic and Abdominal Aorta, Free: 23.4 ± 3.8 mg/g tissue
[4]; mean ± standard error, control 20.1 ± 2.3, *p < 0.05, **p < 0.02 vs control
  Cholesterol level of Thoracic and Abdominal Aorta, Total: 33.9 ± 7.3 mg/g tissue
[4]; mean ± standard error, control 20.6 ± 2.9
  Cholesterol Content of Aortic Arch, Free: 26.9 ± 2.3 mg/g tissue
[4]; number in parentheses
  Cholesterol Content of Aortic Arch, Esterified, percentage against the control: 102%
  Cholesterol Content of Aortic Arch, Free, percentage against the control: 131%
  Cholesterol Content of Aortic Arch, Total, percentage against the control: 124%
  Cholesterol level of Thoracic and Abdominal Aorta, Esterified, percentage against the control: 198%
  Cholesterol level of Thoracic and Abdominal Aorta, Free, percentage against the control: 158%
  Cholesterol level of Thoracic and Abdominal Aorta, Total, percentage against the control: 169%
[5]; control 57, *p < 0.05, **p < 0.01 vs control
  Frequency of massive xanthoma: 68
[5]; forelegs and hindlegs
  incidence of xanthoma: slightly less frequent incidence of xanthoma
[5]; number of legs, control 0
  Distribution of severity of lesion: (-) no lesions: 2
[5]; number of legs, control 6
  Distribution of severity of lesion: (+++) severe lesion: 8
[5]; number of legs, control 10
  Distribution of severity of lesion: (++) moderate lesion: 11
[5]; number of legs, control 12
  Distribution of severity of lesion: (+) slight lesion: 7
[5]; [12]
  Incidence of xanthoma, Forelegs: 100%
  Incidence of xanthoma, Hindlegs: 86%
[5]; oral, eight months, control 100 (28/28), *p < 0.05, **p < 0.01 vs control
  Incidence of xanthoma, Total: 93%

## Cc1c(C)c2c(c(C)c1O)CCC(C)(COc1ccc(CC3SC(=O)NC3=O)cc1)O2 (stereo not shown) [Troglitazone, 5-{4-[(6-hydroxy-2,5,7,8-tetramethyl-chroman-2-yl)methoxy]benzyl}-2,4-thiazolidinedione]
[6]; week 4
  total cholesterol level, % of level before starting the study: 88%
[6]; week 8
  total cholesterol level, % of level before starting the study: 89%
[6]; week 12
  total cholesterol level, % of level before starting the study: 78%
[6]; week 16
  total cholesterol level, % of level before starting the study: 83%
[6]; week 20
  total cholesterol level, % of level before starting the study: 72%
[6]; week 24
  total cholesterol level, % of level before starting the study: 73%
[6]; week 28
  total cholesterol level, % of level before starting the study: 77%
[6]; week 32
  total cholesterol level, % of level before starting the study: 76%
[7]; control 29.9 ± 4.4
  Lesion area, Abdominal aorta: 27.6 ± 7.0%
[7]; control 65.7 ± 3.9
  Lesion Area, Total Aorta: 51.7 ± 7.7%
[7]; control 79.3 ± 5.4
  Lesion area, Thoracic aorta: 57.9 ± 9.9%
[8]; control 13
  Coronary stenosis, RCA (right coronary artery): 7%
[8]; control 24
  Coronary stenosis, LAD (left anterior descending artery): 11%
[8]; control 40
  Coronary stenosis, LSP (left septal artery): 31%
[8]; control 47
  Coronary stenosis, LCX (left circumflex artery): 39%
[8]; control 61
  Coronary stenosis, MLC (main left coronary artery): 59%
[8]; control 79
  Coronary stenosis, MRC (main right coronary artery): 83%
[9]; week 32, control 100 (14/14)
  Incidence of xanthoma, Foreleg: 86%
  Incidence of xanthoma, Hind leg: 29%
[9]; week 32, control 100 (28/28)
  Incidence of xanthoma, Total: 57%
[10]; 10 mg/kg, figure in parentheses
  Rate of lesion area, against the control group: 79
[10]; thoracic aorta, 10 mg/kg oral, two months, mean ± standard error, control 29 ± 20
  Rate of lesion area: 23 ± 7%
[11]; 30 mg/kg
  Stained Area, % of Control: 109%
[11]; 100 mg/kg
  Stained Area, % of Control: 58%
[11]; 30 mg/kg in diet
  Stained Area ORO: 1.99 ± 0.40%
[11]; 100 mg/kg in diet
  Stained Area ORO: 1.05 ± 0.64%
[11]; pravastatin 3 mg/kg, fluvastatin 1.5 mg/kg, troglitazone 30 mg/kg alone, combinations
  regression of aortic lesions: no regression of aortic lesions
[11]; troglitazone alone, 100 mg/kg
  regression of aortic lesions: regression was observed
